Reference: patent US4508663A, “Process for preparing thiosulfenamide derivatives of N-phosphonomethylglycinonitriles” (Monsanto Company, priority 1983, dated 1985)

Columns and labels:
Assay in all cases: post-emergence herbicidal activity, greenhouse
Format in all cases: in vivo
[1] = test system: Sorghum; settings: Table II
In short: (§1)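 Plants grown from seed or perennial propagules in greenhouse soil pans were sprayed at two to three weeks with compound solution or suspension containing about 0.4% emulsifier, at the stated application rates. Injury relative to untreated controls was scored at approximately two and four weeks after treatment on a post-emergence activity index.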

[2] = test system: Rice; settings: Table II
In short: as §1

[3] = test system: Quackgrass; settings: Table I, 4 WAT
In short: as §1

[4] = test system: Yellow Nutsedge; settings: Table I, 4 WAT
In short: as §1

[5] = test system: Downy Brome
In short: as §1

[6] = test system: Panicum Spp; settings: Table II
In short: as §1

[7] = test system: Smartweed; settings: Table I, 4 WAT
In short: as §1

[8] = test system: Morningglory
In short: as §1

[9] = test system: Sugar Beet; settings: Table II
In short: as §1

[10] = test system: Crabgrass; settings: Table II
In short: as §1

[11] = test system: Canada Thistle; settings: Table I, 4 WAT
In short: as §1

[12] = test system: Lambsquarters
In short: as §1

[13] = test system: Johnsongrass; settings: Table I, 4 WAT
In short: as §1

[14] = test system: Cocklebur
In short: as §1

[15] = test system: Velvetleaf
In short: as §1

[16] = test system: Wild Buckwheat; settings: Table II
In short: as §1

[17] = test system: Soybean; settings: Table II
In short: as §1

[18] = test system: Hemp Sesbania; settings: Table II
In short: as §1

[19] = test system: Barnyardgrass
In short: as §1

[20] = test system: Wheat; settings: Table II
In short: as §1

CSSN(CC#N)CP(=O)(Oc1ccccc1)Oc1ccccc1 [VII]
post-emergence herbicidal activity index ([1]; 2 WAT, 0.056 kg/h): 0 (0-24% control) | post-emergence herbicidal activity index ([1]; 2 WAT, 0.28 kg/h): 1 (25-49% control) | post-emergence herbicidal activity index ([1]; 2 WAT, 1.12 kg/h): 1 (25-49% control) | post-emergence herbicidal activity index ([1]; 2 WAT, 5.6 kg/h): 2 (50-74% control) | post-emergence herbicidal activity index ([1]; 4 WAT, 1.12 kg/h): 2 (50-74% control) | post-emergence herbicidal activity index ([1]; 4 WAT, 5.6 kg/h): 3 (75-99% control) | post-emergence herbicidal activity index ([2]; 2 WAT, 0.056 kg/h): 0 (0-24% control) | post-emergence herbicidal activity index ([2]; 2 WAT, 0.28 kg/h): 0 (0-24% control) | post-emergence herbicidal activity index ([2]; 2 WAT, 1.12 kg/h): 0 (0-24% control) | post-emergence herbicidal activity index ([2]; 2 WAT, 5.6 kg/h): 3 (75-99% control) | post-emergence herbicidal activity index ([2]; 4 WAT, 1.12 kg/h): 0 (0-24% control) | post-emergence herbicidal activity index ([2]; 4 WAT, 5.6 kg/h): 3 (75-99% control) | post-emergence herbicidal activity index ([3]; 5.6 kg/h): 2 (50-74% control) | post-emergence herbicidal activity index ([3]; 11.2 kg/h): 1 (25-49% control) | post-emergence herbicidal activity index ([4]; 5.6 kg/h): 2 (50-74% control) | post-emergence herbicidal activity index ([4]; 11.2 kg/h): 2 (50-74% control) | post-emergence herbicidal activity index ([5]; Table I, 4 WAT, 5.6 kg/h): 3 (75-99% control) | post-emergence herbicidal activity index ([5]; Table I, 4 WAT, 11.2 kg/h): 2 (50-74% control) | post-emergence herbicidal activity index ([5]; Table II, 2 WAT, 0.056 kg/h): 0 (0-24% control) | post-emergence herbicidal activity index ([5]; Table II, 2 WAT, 0.28 kg/h): 0 (0-24% control) | post-emergence herbicidal activity index ([5]; Table II, 2 WAT, 1.12 kg/h): 1 (25-49% control) | post-emergence herbicidal activity index ([5]; Table II, 2 WAT, 5.6 kg/h): 1 (25-49% control) | post-emergence herbicidal activity index ([5]; Table II, 4 WAT, 1.12 kg/h): 0 (0-24% control) | post-emergence herbicidal activity index ([5]; Table II, 4 WAT, 5.6 kg/h): 1 (25-49% control) | post-emergence herbicidal activity index ([6]; 2 WAT, 0.056 kg/h): 0 (0-24% control) | post-emergence herbicidal activity index ([6]; 2 WAT, 0.28 kg/h): 0 (0-24% control) | post-emergence herbicidal activity index ([6]; 2 WAT, 1.12 kg/h): 0 (0-24% control) | post-emergence herbicidal activity index ([6]; 2 WAT, 5.6 kg/h): 1 (25-49% control) | post-emergence herbicidal activity index ([6]; 4 WAT, 1.12 kg/h): 0 (0-24% control) | post-emergence herbicidal activity index ([6]; 4 WAT, 5.6 kg/h): 2 (50-74% control) | post-emergence herbicidal activity index ([7]; 5.6 kg/h): 2 (50-74% control) | post-emergence herbicidal activity index ([7]; 11.2 kg/h): 4 (100% control) | post-emergence herbicidal activity index ([8]; Table I, 4 WAT, 5.6 kg/h): 2 (50-74% control) | post-emergence herbicidal activity index ([8]; Table I, 4 WAT, 11.2 kg/h): 2 (50-74% control) | post-emergence herbicidal activity index ([8]; Table II, 2 WAT, 0.056 kg/h): 0 (0-24% control) | post-emergence herbicidal activity index ([8]; Table II, 2 WAT, 0.28 kg/h): 1 (25-49% control) | post-emergence herbicidal activity index ([8]; Table II, 2 WAT, 1.12 kg/h): 1 (25-49% control) | post-emergence herbicidal activity index ([8]; Table II, 2 WAT, 5.6 kg/h): 2 (50-74% control) | post-emergence herbicidal activity index ([8]; Table II, 4 WAT, 1.12 kg/h): 0 (0-24% control) | post-emergence herbicidal activity index ([8]; Table II, 4 WAT, 5.6 kg/h): 2 (50-74% control) | post-emergence herbicidal activity index ([9]; 2 WAT, 0.056 kg/h): 0 (0-24% control) | post-emergence herbicidal activity index ([9]; 2 WAT, 0.28 kg/h): 0 (0-24% control) | post-emergence herbicidal activity index ([9]; 2 WAT, 1.12 kg/h): 0 (0-24% control) | post-emergence herbicidal activity index ([9]; 2 WAT, 5.6 kg/h): 1 (25-49% control) | post-emergence herbicidal activity index ([9]; 4 WAT, 1.12 kg/h): 0 (0-24% control) | post-emergence herbicidal activity index ([9]; 4 WAT, 5.6 kg/h): 1 (25-49% control) | post-emergence herbicidal activity index ([10]; 2 WAT, 0.056 kg/h): 0 (0-24% control) | post-emergence herbicidal activity index ([10]; 2 WAT, 0.28 kg/h): 1 (25-49% control) | post-emergence herbicidal activity index ([10]; 2 WAT, 1.12 kg/h): 3 (75-99% control) | post-emergence herbicidal activity index ([10]; 2 WAT, 5.6 kg/h): 4 (100% control) | post-emergence herbicidal activity index ([10]; 4 WAT, 1.12 kg/h): 3 (75-99% control) | post-emergence herbicidal activity index ([10]; 4 WAT, 5.6 kg/h): 4 (100% control) | post-emergence herbicidal activity index ([11]; 5.6 kg/h): 4 (100% control) | post-emergence herbicidal activity index ([11]; 11.2 kg/h): 4 (100% control) | post-emergence herbicidal activity index ([12]; Table I, 4 WAT, 5.6 kg/h): 3 (75-99% control) | post-emergence herbicidal activity index ([12]; Table I, 4 WAT, 11.2 kg/h): 4 (100% control) | post-emergence herbicidal activity index ([12]; Table II, 2 WAT, 0.056 kg/h): 0 (0-24% control) | post-emergence herbicidal activity index ([12]; Table II, 2 WAT, 0.28 kg/h): 1 (25-49% control) | post-emergence herbicidal activity index ([12]; Table II, 2 WAT, 1.12 kg/h): 1 (25-49% control) | post-emergence herbicidal activity index ([12]; Table II, 2 WAT, 5.6 kg/h): 3 (75-99% control) | post-emergence herbicidal activity index ([12]; Table II, 4 WAT, 1.12 kg/h): 0 (0-24% control) | post-emergence herbicidal activity index ([12]; Table II, 4 WAT, 5.6 kg/h): 4 (100% control) | post-emergence herbicidal activity index ([13]; 5.6 kg/h): 3 (75-99% control) | post-emergence herbicidal activity index ([13]; 11.2 kg/h): 4 (100% control) | post-emergence herbicidal activity index ([14]; Table I, 4 WAT, 5.6 kg/h): 2 (50-74% control) | post-emergence herbicidal activity index ([14]; Table I, 4 WAT, 11.2 kg/h): 3 (75-99% control) | post-emergence herbicidal activity index ([14]; Table II, 2 WAT, 0.056 kg/h): 0 (0-24% control) | post-emergence herbicidal activity index ([14]; Table II, 2 WAT, 0.28 kg/h): 1 (25-49% control) | post-emergence herbicidal activity index ([14]; Table II, 2 WAT, 1.12 kg/h): 1 (25-49% control) | post-emergence herbicidal activity index ([14]; Table II, 2 WAT, 5.6 kg/h): 2 (50-74% control) | post-emergence herbicidal activity index ([14]; Table II, 4 WAT, 1.12 kg/h): 1 (25-49% control) | post-emergence herbicidal activity index ([14]; Table II, 4 WAT, 5.6 kg/h): 3 (75-99% control) | post-emergence herbicidal activity index ([15]; Table I, 4 WAT, 5.6 kg/h): 1 (25-49% control) | post-emergence herbicidal activity index ([15]; Table I, 4 WAT, 11.2 kg/h): 1 (25-49% control) | post-emergence herbicidal activity index ([15]; Table II, 2 WAT, 0.056 kg/h): 0 (0-24% control) | post-emergence herbicidal activity index ([15]; Table II, 2 WAT, 0.28 kg/h): 0 (0-24% control) | post-emergence herbicidal activity index ([15]; Table II, 2 WAT, 1.12 kg/h): 1 (25-49% control) | post-emergence herbicidal activity index ([15]; Table II, 2 WAT, 5.6 kg/h): 2 (50-74% control) | post-emergence herbicidal activity index ([15]; Table II, 4 WAT, 1.12 kg/h): 0 (0-24% control) | post-emergence herbicidal activity index ([15]; Table II, 4 WAT, 5.6 kg/h): 2 (50-74% control) | post-emergence herbicidal activity index ([16]; 2 WAT, 0.056 kg/h): 0 (0-24% control) | post-emergence herbicidal activity index ([16]; 2 WAT, 0.28 kg/h): 1 (25-49% control) | post-emergence herbicidal activity index ([16]; 2 WAT, 1.12 kg/h): 0 (0-24% control) | post-emergence herbicidal activity index ([16]; 2 WAT, 5.6 kg/h): 2 (50-74% control) | post-emergence herbicidal activity index ([16]; 4 WAT, 1.12 kg/h): 0 (0-24% control) | post-emergence herbicidal activity index ([16]; 4 WAT, 5.6 kg/h): 3 (75-99% control) | post-emergence herbicidal activity index ([17]; 2 WAT, 0.056 kg/h): 0 (0-24% control) | post-emergence herbicidal activity index ([17]; 2 WAT, 0.28 kg/h): 0 (0-24% control) | post-emergence herbicidal activity index ([17]; 2 WAT, 1.12 kg/h): 1 (25-49% control) | post-emergence herbicidal activity index ([17]; 2 WAT, 5.6 kg/h): 2 (50-74% control) | post-emergence herbicidal activity index ([17]; 4 WAT, 1.12 kg/h): 1 (25-49% control) | post-emergence herbicidal activity index ([17]; 4 WAT, 5.6 kg/h): 2 (50-74% control) | post-emergence herbicidal activity index ([18]; 2 WAT, 0.056 kg/h): 0 (0-24% control) | post-emergence herbicidal activity index ([18]; 2 WAT, 0.28 kg/h): 0 (0-24% control) | post-emergence herbicidal activity index ([18]; 2 WAT, 1.12 kg/h): 0 (0-24% control) | post-emergence herbicidal activity index ([18]; 2 WAT, 5.6 kg/h): 1 (25-49% control) | post-emergence herbicidal activity index ([18]; 4 WAT, 1.12 kg/h): 0 (0-24% control) | post-emergence herbicidal activity index ([18]; 4 WAT, 5.6 kg/h): 1 (25-49% control) | post-emergence herbicidal activity index ([19]; Table I, 4 WAT, 5.6 kg/h): 2 (50-74% control) | post-emergence herbicidal activity index ([19]; Table I, 4 WAT, 11.2 kg/h): 3 (75-99% control) | post-emergence herbicidal activity index ([19]; Table II, 2 WAT, 0.056 kg/h): 0 (0-24% control) | post-emergence herbicidal activity index ([19]; Table II, 2 WAT, 0.28 kg/h): 0 (0-24% control) | post-emergence herbicidal activity index ([19]; Table II, 2 WAT, 1.12 kg/h): 1 (25-49% control) | post-emergence herbicidal activity index ([19]; Table II, 2 WAT, 5.6 kg/h): 3 (75-99% control) | post-emergence herbicidal activity index ([19]; Table II, 4 WAT, 1.12 kg/h): 1 (25-49% control) | post-emergence herbicidal activity index ([19]; Table II, 4 WAT, 5.6 kg/h): 3 (75-99% control) | post-emergence herbicidal activity index ([20]; 2 WAT, 0.056 kg/h): 0 (0-24% control) | post-emergence herbicidal activity index ([20]; 2 WAT, 0.28 kg/h): 1 (25-49% control) | post-emergence herbicidal activity index ([20]; 2 WAT, 1.12 kg/h): 1 (25-49% control) | post-emergence herbicidal activity index ([20]; 2 WAT, 5.6 kg/h): 2 (50-74% control) | post-emergence herbicidal activity index ([20]; 4 WAT, 1.12 kg/h): 0 (0-24% control) | post-emergence herbicidal activity index ([20]; 4 WAT, 5.6 kg/h): 3 (75-99% control)
